What was measured:
Format in all cases: in vivo
[1] = system: rice (Oryra sativa); assay: Test B flooded paddy test; details: Oryza sativa, 360 h, Flood, 250 g ai/ha; visually evaluated after 13 to 15 d; read-out: Plant response rating, Rice (0 to 100 scale where 0 is no effect and 100 is complete control)
Procedure, shortened: (§1)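 2-leaf plants; pots flooded 3 cm over soil; cpd added to paddy water; depth held; greenhouse 13–15 d; visual rating vs controls, 0 = no effect, 100 = complete control.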

[2] = system: sedge, umbrella (small-flower umbrella sedge, Cyperus difformis); assay: Test B flooded paddy test; details: Cyperus difformis, 360 h, Flood, 250 g ai/ha; visually evaluated after 13 to 15 d; read-out: Plant response rating, Sedge, Umbrella (0 to 100 scale where 0 is no effect and 100 is complete control)
Procedure, shortened: as §1

[3] = system: ducksalad (Heteranthera limosa); assay: Test B flooded paddy test; details: Heteranthera limosa, 360 h, Flood, 250 g ai/ha; visually evaluated after 13 to 15 d; read-out: Plant response rating, Ducksalad (0 to 100 scale where 0 is no effect and 100 is complete control)
Procedure, shortened: as §1

[4] = system: barnyardgrass (Echinochloa crus-galli); assay: Test B flooded paddy test; details: Echinochloa crus-galli, 360 h, Flood, 250 g ai/ha; visually evaluated after 13 to 15 d; read-out: Plant response rating, Barnyardgrass (0 to 100 scale where 0 is no effect and 100 is complete control)
Procedure, shortened: as §1

[5] = system: Kochia (Kochia scoparia); assay: Test A preemergence; details: Bassia scoparia, pre-emergence, 240 h, Preemergence
Procedure, shortened: (§2)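 Greenhouse, ~10 d after spray; visual injury vs untreated controls, 0 = no effect, 100 = complete control. Preemergence: directed soil spray over planted seeds. Postemergence: plants 2–10 cm, 1–2 leaf stage. Loam/sand blend. Compound in non-phytotoxic solvent with surfactant.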

[6] = system: ragweed (common ragweed, Ambrosia elatior); assay: Test A preemergence; details: Ambrosia artemisiifolia, pre-emergence, 240 h, Preemergence
Procedure, shortened: as §2

[7] = system: barnyardgrass (Echinochloa crus-galli); assay: Test A preemergence; details: Echinochloa crus-galli, pre-emergence, 240 h, Preemergence
Procedure, shortened: as §2

[8] = system: ryegrass, Italian (Italian ryegrass, Lolium multiflorum); assay: Test A preemergence; details: Lolium multiflorum, pre-emergence, 240 h, Preemergence
Procedure, shortened: as §2

[9] = system: giant foxtail (Setaria faberii); assay: Test A preemergence; details: Setaria faberi, pre-emergence, 240 h, Preemergence
Procedure, shortened: as §2

[10] = system: pigweed (Amaranthus retroflexus); assay: Test A preemergence; details: Amaranthus retroflexus, pre-emergence, 240 h, Preemergence
[11] = system: wheat (Triticum aestivum); assay: Test A postemergence; details: Triticum aestivum, post-emergence, 240 h, Postemergence
Procedure, shortened: as §2

[12] = system: Kochia (Kochia scoparia); assay: Test A postemergence; details: Bassia scoparia, post-emergence, 240 h, Postemergence
Procedure, shortened: as §2

[13] = system: blackgrass (Alopecurus myosuroides); assay: Test A postemergence; details: Alopecurus myosuroides, post-emergence, 240 h, Postemergence
Procedure, shortened: as §2

[14] = system: corn (Zea mays); assay: Test A postemergence; details: Zea mays, post-emergence, 240 h, Postemergence
Procedure, shortened: as §2

[15] = system: ragweed (common ragweed, Ambrosia elatior); assay: Test A postemergence; details: Ambrosia artemisiifolia, post-emergence, 240 h, Postemergence
Procedure, shortened: as §2

[16] = system: barnyardgrass (Echinochloa crus-galli); assay: Test A postemergence; details: Echinochloa crus-galli, post-emergence, 240 h, Postemergence
Procedure, shortened: as §2

[17] = system: ryegrass, Italian (Italian ryegrass, Lolium multiflorum); assay: Test A postemergence; details: Lolium multiflorum, post-emergence, 240 h, Postemergence
Procedure, shortened: as §2

[18] = system: giant foxtail (Setaria faberii); assay: Test A postemergence; details: Setaria faberi, post-emergence, 240 h, Postemergence
Procedure, shortened: as §2

[19] = system: pigweed (Amaranthus retroflexus); assay: Test A postemergence; details: Amaranthus retroflexus, post-emergence, 240 h, Postemergence
Procedure, shortened: as §2

[20] = system: Galium (catchweed bedstraw, Galium aparine); assay: Test A postemergence; details: Galium, post-emergence, 240 h, Postemergence
Procedure, shortened: as §2

CN1C[C@H](c2ccc(Cl)cc2)[C@@H](C(=O)Nc2cccc(F)n2)C1=O [Compound 1399]
pest or weed control at 250 g/ha [1]: 15% | pest or weed control at 250 g/ha [2]: 0% | pest or weed control at 250 g/ha [3]: 100% | pest or weed control at 250 g/ha [4]: 85% | pest or weed control at 31 g/ha ([5]; 31 g ai/ha, 0 to 100 scale where 0 is no effect and 100 is complete control, read-out: Kochia plant response rating): 20% | pest or weed control at 125 g/ha ([5]; 125 g ai/ha, 0 to 100 scale (0 no effect, 100 complete control), read-out: Plant response rating, Kochia): 70% | pest or weed control at 31 g/ha ([6]; 31 g ai/ha, 0 to 100 scale where 0 is no effect and 100 is complete control, read-out: Ragweed plant response rating): 50% | pest or weed control at 125 g/ha ([6]; 125 g ai/ha, 0 to 100 scale (0 no effect, 100 complete control), read-out: Plant response rating, Ragweed): 60% | pest or weed control at 31 g/ha ([7]; 31 g ai/ha, 0 to 100 scale where 0 is no effect and 100 is complete control, read-out: Barnyardgrass plant response rating): 80% | pest or weed control at 125 g/ha ([7]; 125 g ai/ha, 0 to 100 scale (0 no effect, 100 complete control), read-out: Plant response rating, Barnyardgrass): 90% | pest or weed control at 31 g/ha ([8]; 31 g ai/ha, 0 to 100 scale where 0 is no effect and 100 is complete control, read-out: Ryegrass, Italian plant response rating): 0% | pest or weed control at 125 g/ha ([8]; 125 g ai/ha, 0 to 100 scale (0 no effect, 100 complete control), read-out: Plant response rating, Ryegrass, Italian): 40% | pest or weed control at 31 g/ha ([9]; 31 g ai/ha, 0 to 100 scale where 0 is no effect and 100 is complete control, read-out: Foxtail, Giant plant response rating): 90% | pest or weed control at 125 g/ha ([9]; 125 g ai/ha, 0 to 100 scale (0 no effect, 100 complete control), read-out: Plant response rating, Foxtail, Giant): 90% | pest or weed control at 31 g/ha ([10]; 31 g ai/ha, 0 to 100 scale where 0 is no effect and 100 is complete control, read-out: Pigweed plant response rating): 30% | pest or weed control at 125 g/ha ([10]; 125 g ai/ha, 0 to 100 scale (0 no effect, 100 complete control), read-out: Plant response rating, Pigweed): 30% | plant injury at 31 g/ha ([11]; 31 g ai/ha, 0 is no effect, 100 is complete control, read-out: Wheat plant response rating (0 to 100 scale)): 0% | plant injury at 125 g/ha ([11]; 125 g ai/ha, visual injury after approx. 10 d, 0 to 100 scale, 0 no effect, 100 complete control, read-out: Plant response rating, Wheat): 20% | pest or weed control at 31 g/ha ([12]; 31 g ai/ha, 0 is no effect, 100 is complete control, read-out: Kochia plant response rating (0 to 100 scale)): 50% | pest or weed control at 125 g/ha ([12]; 125 g ai/ha, visual injury after approx. 10 d, 0 to 100 scale, 0 no effect, 100 complete control, read-out: Plant response rating, Kochia): 70% | pest or weed control at 31 g/ha ([13]; 31 g ai/ha, 0 is no effect, 100 is complete control, read-out: Blackgrass plant response rating (0 to 100 scale)): 20% | pest or weed control at 125 g/ha ([13]; 125 g ai/ha, visual injury after approx. 10 d, 0 to 100 scale, 0 no effect, 100 complete control, read-out: Plant response rating, Blackgrass): 20% | plant injury at 31 g/ha ([14]; 31 g ai/ha, 0 is no effect, 100 is complete control, read-out: Corn plant response rating (0 to 100 scale)): 0% | Corn plant response rating (crop injury, 0 = no effect, 100 = complete kill) at 125 g/ha ([14]; 125 g ai/ha, visual injury after approx. 10 d, 0 to 100 scale, 0 no effect, 100 complete control): 0% | pest or weed control at 31 g/ha ([15]; 31 g ai/ha, 0 is no effect, 100 is complete control, read-out: Ragweed plant response rating (0 to 100 scale)): 0% | pest or weed control at 125 g/ha ([15]; 125 g ai/ha, visual injury after approx. 10 d, 0 to 100 scale, 0 no effect, 100 complete control, read-out: Plant response rating, Ragweed): 40% | pest or weed control at 31 g/ha ([16]; 31 g ai/ha, 0 is no effect, 100 is complete control, read-out: Barnyardgrass plant response rating (0 to 100 scale)): 90% | pest or weed control at 125 g/ha ([16]; 125 g ai/ha, visual injury after approx. 10 d, 0 to 100 scale, 0 no effect, 100 complete control, read-out: Plant response rating, Barnyardgrass): 90% | pest or weed control at 31 g/ha ([17]; 31 g ai/ha, 0 is no effect, 100 is complete control, read-out: Ryegrass, Italian plant response rating (0 to 100 scale)): 20% | pest or weed control at 125 g/ha ([17]; 125 g ai/ha, visual injury after approx. 10 d, 0 to 100 scale, 0 no effect, 100 complete control, read-out: Plant response rating, Ryegrass, Italian): 20% | pest or weed control at 31 g/ha ([18]; 31 g ai/ha, 0 is no effect, 100 is complete control, read-out: Foxtail, Giant plant response rating (0 to 100 scale)): 70% | pest or weed control at 125 g/ha ([18]; 125 g ai/ha, visual injury after approx. 10 d, 0 to 100 scale, 0 no effect, 100 complete control, read-out: Plant response rating, Foxtail, Giant): 90% | pest or weed control at 31 g/ha ([19]; 31 g ai/ha, 0 is no effect, 100 is complete control, read-out: Pigweed plant response rating (0 to 100 scale)): 0% | pest or weed control at 125 g/ha ([19]; 125 g ai/ha, visual injury after approx. 10 d, 0 to 100 scale, 0 no effect, 100 complete control, read-out: Plant response rating, Pigweed): 40% | pest or weed control at 31 g/ha ([20]; 31 g ai/ha, 0 is no effect, 100 is complete control, read-out: Galium plant response rating (0 to 100 scale)): 40% | pest or weed control at 125 g/ha ([20]; 125 g ai/ha, visual injury after approx. 10 d, 0 to 100 scale, 0 no effect, 100 complete control, read-out: Plant response rating, Galium): 60%
